According to patent US9439888B2, “Tetrazolones as a carboxylic acid bioisosteres” (RIGEL PHARMACEUTICALS, INC., priority 2015, dated 2016):

Columns and labels:
[1] = molecular target: T1, angiotensin II receptor type 1 (AT1) (Homo sapiens, UniProt P30556); assay: AT1 antagonist activity: inhibition of response to 3 nM angiotensin-II, intracellular Ca2+ by fluorimetry; assay type: cell-based; details: HEK-293 cells expressing hAT1
T1 construct: expressed in transfected cells; host or cells: HEK-293
T1 sequence (P30556 1-359): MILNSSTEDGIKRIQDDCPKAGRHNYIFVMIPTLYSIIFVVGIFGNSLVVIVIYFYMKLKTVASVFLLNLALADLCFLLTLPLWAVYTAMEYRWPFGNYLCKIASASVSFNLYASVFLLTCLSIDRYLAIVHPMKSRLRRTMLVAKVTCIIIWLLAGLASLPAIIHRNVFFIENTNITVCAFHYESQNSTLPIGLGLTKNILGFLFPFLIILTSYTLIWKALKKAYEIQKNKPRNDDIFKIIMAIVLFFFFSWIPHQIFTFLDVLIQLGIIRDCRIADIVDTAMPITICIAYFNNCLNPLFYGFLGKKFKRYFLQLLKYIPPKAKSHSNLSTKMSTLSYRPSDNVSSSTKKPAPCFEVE

[2] = molecular target: T2, retinoid X receptor alpha (RXRa) (Homo sapiens, UniProt P19793); assay: RXRα agonist activity assay
T2 sequence (P19793 1-462): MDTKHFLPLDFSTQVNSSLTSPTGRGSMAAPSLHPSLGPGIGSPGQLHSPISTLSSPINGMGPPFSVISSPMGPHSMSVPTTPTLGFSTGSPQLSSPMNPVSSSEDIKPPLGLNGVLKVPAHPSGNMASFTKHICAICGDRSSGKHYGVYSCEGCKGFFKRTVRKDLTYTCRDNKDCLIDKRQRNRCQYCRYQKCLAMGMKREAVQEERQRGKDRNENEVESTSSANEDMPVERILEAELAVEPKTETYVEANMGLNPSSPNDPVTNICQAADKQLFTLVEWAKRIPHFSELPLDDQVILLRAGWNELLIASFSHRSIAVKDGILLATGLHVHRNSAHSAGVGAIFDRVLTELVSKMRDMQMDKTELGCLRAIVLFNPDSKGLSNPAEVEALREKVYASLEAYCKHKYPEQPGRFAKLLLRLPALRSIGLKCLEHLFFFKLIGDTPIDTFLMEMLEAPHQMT

IC50 [1] [nM] | Kb [1] [nM] | EC50 [2] [nM] | SMILES
1.7 | 0.14 | – | CCCc1nc2c(C)cc(-c3nc4ccccc4n3C)cc2n1Cc1ccc(-c2ccccc2-n2nn[nH]c2=O)cc1 [6t]
– | – | 64 | C=C(c1ccc(-n2nn[nH]c2=O)cc1)c1cc2c(cc1C)C(C)(C)CCC2(C)C [6u, 1-(4-(1-(3,5,5,8,8-pentamethyl-5,6,7,8-tetrahydronaphthalen-2-yl)vinyl)phenyl)-1,4-dihydro-5h-tetrazol-5-one]
